{"source": "patent US20050107474A1", "about": "“Pharmaceutical compositions for the treatment of infections of the respiratory system by pathogenic agents” (priority 2002, published 2005)", "key": {"S. epidermidis": {"test_system": "S. epidermidis", "conditions": "J. Ant. Chem., 39, 643, (1997); cited from earlier work"}, "S. aureus [1]": {"test_system": "S. aureus", "assay": "Bacterial growth in broth culture with NAC", "format": "cell-based, Staphylococcus aureus", "conditions": "NAC up to maximum concentration 8 mg/ml"}, "S. aureus biofilm [2]": {"test_system": "S. aureus biofilm", "assay": "Biofilm formation in polystyrene microplates, crystal violet, spectrophotometric at 492 nm", "format": "cell-based, Staphylococcus aureus", "conditions": "for reduction of the biofilm (formation) / decrease of biofilm production: NAC 8 mg/ml, 24 hours", "method": "(§1) The effects of NAC and TAPh on the biofilm produced by S. aureus were evaluated on four strains of the microorganism designated 1393, 1876, 1880 and 1890.\nFormation of the biofilms was quantified spectrophotometrically in polystyrene microplates with U-well geometry (Corning Incorporated, New York).\nIn more detail, the effect of NAC on biofilm formation was evaluated as follows: overnight broth cultures in tryptic soy broth (TSB) with glucose added (0.25%) (TSBG) were diluted 1:100 in TSBG. Appropriate dilutions of NAC at concentrations varying respectively from 8 mg/ml to 0.007 mg/ml were added to the suspensions (100 μl each). After incubation at 37° C. for 24 hours, the microplates were washed three times with 10 mM phosphate buffer pH 7.4 (PBS), treated with Bouin fixative and then stained with crystal violet (0.01%).\n(§2) The biofilm adhering to the walls of the microplates was washed with PBS, suspended in 10% sarcosyl and measured spectrophotometrically at 492 nm."}, "S. aureus [3]": {"test_system": "S. aureus", "assay": "Viability (CFU/ml) of biofilm cells after sonication and seeding", "format": "cell-based, Staphylococcus aureus", "conditions": "maximum concentration, range over strains", "method": "as §1\nAt the same time, the biofilms thus treated were submitted to sonication in order to disperse the cells that were still adhering, and these were seeded on rich medium after suitable dilution for calculating the vital elements surviving the various treatments."}, "S. aureus biofilm [4]": {"test_system": "S. aureus biofilm", "assay": "Disruption of biofilm at initial maturation (5 hours)", "format": "cell-based, Staphylococcus aureus", "conditions": "for disruption of biofilm formed after 5 hours (initial maturation): maximum concentration (8 mg/ml)", "method": "as §1, §2\n(§3) The same technique was employed for calculating the residual quantity of biofilm after treatment with NAC alone and combined with TAPh on S. aureus. For this purpose, biofilms with two different degrees of maturity: initial (5 hours) and fully consolidated (48 hours) were exposed to suitable concentrations of NAC (from 8 mg/ml to 0.007 mg/ml) with added TAPh at the concentrations that can be reached in vivo in the pulmonary tree."}, "S. aureus biofilm [5]": {"test_system": "S. aureus biofilm", "assay": "Disruption of fully consolidated biofilm (48 hours)", "format": "cell-based, Staphylococcus aureus", "method": "as §1, §2, §3"}, "P. aeruginosa": {"test_system": "P. aeruginosa", "conditions": "Antimicrob. Agents Chemother., 35, 1258, (1991); cited from earlier work"}}, "note": "Where “and” joins values, the source holds several entries; their conditions need not be identical. Equal entries are not always repeated.", "data": [{"smiles": "CC(=O)N[C@@H](CS)C(=O)O", "note": "[NAC, N-acetyl-cysteine]", "values": [{"measurement": "inhibition of biofilm formation", "setting": "S. epidermidis", "value": "inhibit their formation"}, {"measurement": "visible changes in bacterial growth", "setting": "S. aureus [1]", "value": "did not cause visible changes in bacterial growth"}, {"measurement": "reduction of the biofilm (formation)", "setting": "S. aureus biofilm [2]; S. aureus 1393", "value": 68.2, "unit": "%"}, {"measurement": "decrease of biofilm production", "setting": "S. aureus biofilm [2]; S. aureus 1876", "value": 30.3, "unit": "%"}, {"measurement": "decrease of biofilm production", "setting": "S. aureus biofilm [2]; S. aureus 1880", "value": 41.1, "unit": "%"}, {"measurement": "reduction of the biofilm (formation)", "setting": "S. aureus biofilm [2]; S. aureus 1890", "value": 56.3, "unit": "%"}, {"measurement": "glycocalyx production", "setting": "S. aureus biofilm [2]; all the strains", "value": "inhibited glycocalyx production in all the strains"}, {"measurement": "reduction in colony forming units per ml (CFU/ml)", "setting": "S. aureus [3]; cells of mature (consolidated) biofilms", "value": "33.7% to 70.6"}, {"measurement": "reduction in colony forming units per ml (CFU/ml)", "setting": "S. aureus [3]; cells of the youngest biofilms (initial maturation)", "value": "33.7% to 91"}, {"measurement": "reduction values with NAC on its own, initial biofilms (range over strains, restated)", "setting": "S. aureus biofilm [4]; NAC alone, first range printed", "value": "32.5-65.5%"}, {"measurement": "disruption of biofilm formed after 5 hours (initial maturation)", "setting": "S. aureus biofilm [4]; S. aureus 1876", "value": 32.5, "unit": "%"}, {"measurement": "disruption of biofilm formed after 5 hours (initial maturation)", "setting": "S. aureus biofilm [4]; strain 1393", "value": 61.1, "unit": "%"}, {"measurement": "disruption of biofilm formed after 5 hours (initial maturation)", "setting": "S. aureus biofilm [4]; strain 1880", "value": 57.3, "unit": "%"}, {"measurement": "disruption of biofilm formed after 5 hours (initial maturation)", "setting": "S. aureus biofilm [4]; strain 1890", "value": 58.6, "unit": "%"}, {"measurement": "reduction values with NAC on its own, fully consolidated biofilms (range over strains, restated)", "setting": "S. aureus biofilm [5]; NAC alone, second range printed", "value": "58.1-62%"}, {"measurement": "reduction of mucopolysaccharide material of fully consolidated biofilms", "setting": "S. aureus biofilm [5]; maximum concentration, four strains assayed, one value each, strain per value not given", "value": "62% and 60.5% and 58.1% and 65.5%"}, {"measurement": "disruption of biofilms", "setting": "P. aeruginosa", "value": "ability to disrupt biofilms"}]}]}
